Legend:
[1] = tested on: haploid mother plant; assay: Tiller induction with doubled haploid mother plant (Example 7); assay type: in vivo, maize
Description: A haploid mother plant will be subjected to doubling treatment and thereafter planted in a pot, the soil surrounding the roots drenched with 100 mL of 2.5% of paclobutrazol, and then tended standard maize green house growing conditions for several days. […] One of the resulting daughter tiller plants can be separated from the mother plant, transplanted into a separate pot, and grown via standard green house management procedures to eventually recover a daughter plant with normal haploid morphology.

[2] = tested on: DH0 seedlings of Germplasm A; assay: Doubling efficiency of DH0 plants after co-dominant ear induction treatment (Example 2); assay type: in vivo, maize
Description: An F1 hybrid-derived haploid induction population derived from female inbred maize plant Germplasm A was germinated in soil and tended in standard greenhouse maize growing conditions for approximately seven days. Seedlings were then subjected to a bulk colchicine-based chromosome doubling treatment as described above. Following treatment, seedlings were transplanted into pots and tended in a greenhouse at standard greenhouse maize growing conditions to recover.
Twenty-nine days after the colchicine doubling treatment, 77 of the DH0 seedlings were subjected to a co-dominant ear induction treatment comprising the addition of 60 mL of 2.5% PBZ (v/v) in water, which was poured into the soil surrounding the roots of each plant. The seedlings were then tended in standard greenhouse maize growing conditions until they flowered, at which time each plant that produced pollen was self-pollinated. After approximately 3-4 weeks, ears were harvested and the kernels (DH1 seeds) that formed on the treated DH0 plants were counted to determine doubling efficiencies.
Doubling efficiencies (DE) were calculated under four different constraints, depending on the minimum number of kernels an ear had to produce in order to even be included in the calculation. DE04 represents the portion of all the doubled DH0 plants that produced a total of at least four seeds when all ears were considered. DE20 represents the portion of all the doubled DH0 plants that produced a total of at least 20 kernels when all ears were considered. Similarly, DE30 represents the portion of doubled DH0 plants that produced a total of at least 30 kernels when all ears were considered, and DE50 represents the portion of doubled DH0 plants that produced a total of at least 50 kernels when all ears were considered.
Furthermore, the above doubling efficiencies were calculated once by considering only the kernels that formed on the primary ear of each plant (Ear1), once by considering only the kernels that formed on the primary and secondary ear of each plant (Ear2), once by considering only the kernels that formed on the primary, secondary, and tertiary ear of each plant (Ear3), and finally by considering all the kernels that formed on all the ears of each plant (Earall).

[3] = tested on: Diploid maize plants of a common inbred line; assay: Tiller induction in diploids (Example 6); assay type: in vivo
Description: Diploid maize plants of a common inbred line were subjected to a tiller induction treatment comprising drenching the soil surrounding the roots with 100 mL of a 2.5% PBZ solution (v/v; 0.4% of active ingredient) approximately one week after germination and then allowed to grow to sexual maturity in 10-inch pots a greenhouse. A control group of plants were grown under identical circumstances except that they were not subjected to the tiller induction treatment.
Three treatment groups were then formed from the tillers: tillers of the “Co-hab” treatment were allowed to continue growing in the same pot with the mother plant; those of the “-Mother” treatment also remained in the same pot, but the mother plant was removed from the pot; and those of the “Transplanted” treatment group were transplanted from the pot containing the mother plant into separate 10-inch pots, one plant per pot. Any naturally-occurring tillers produced by the control group were allowed to grow in the same pot as the mother plant, similar to the co-hab treatment. All plants were allowed to grow to sexual maturity and self-pollinated when silks and tassels formed. When seed set was complete, the average total number of seeds produced by all plants deriving from the same mother plant seed were counted and plotted in FIG. 3.

[4] = tested on: maize inbred lines Germplasm A and LH244; assay: Co-dominant ear induction in diploid inbred lines (Example 5); assay type: in vivo
Description: Seeds of maize inbred lines Germplasm A and LH244 were planted in soil, germinated, and then transplanted to 10-inch pots after approximately one week, one seedling per pot. The plants were subjected to a co-dominant ear induction treatment at the V8 stage comprising drenching the soil surrounding the roots of each plant with 50 mL of a 2.5% PBZ solution (v/v; 0.4% of active ingredient). The plants were tended in a greenhouse until sexual maturity, then they were self-pollinated. When seed set had completed, the number of co-dominant ears, and the total number of kernels, produced by each plant were counted. Control plants for each germplasm were processed in the same way as the treated groups, except that the control plants were not subjected to the co-dominant ear induction treatment.

[5] = Ear1 (primary ear only), 60 mL 2.5% PBZ 29 days after colchicine doubling
[6] = Ear2 (primary and secondary ear), 60 mL 2.5% PBZ after colchicine doubling
[7] = Ear3 (primary, secondary and tertiary ear), 60 mL 2.5% PBZ after colchicine doubling
[8] = EarAll (all ears), 60 mL 2.5% PBZ after colchicine doubling
[9] = 100 mL 2.5% PBZ soil drench approx. one week after germination

## CC(C)(C)[C@H](O)[C@H](Cc1ccc(Cl)cc1)n1cncn1 (relative stereo) [PBZ, (2S,3S)-1-(4-chlorophenyl)-4,4-dimethyl-2-(1,2,4-triazol-1-yl) pentan-3-ol]
[1]; daughter tiller separated and transplanted
  DH1 seeds yielded by daughter tiller plant when selfed: several dozen DH1 seeds
[1]; haploid mother plant after doubling treatment, 100 mL of 2.5% paclobutrazol soil drench
  morphology and tiller production of mother plant: shortened internodes and increased tiller production
[2]; [5]
  DE04: 71%
  DE20: 37%
  DE30: 26%
  DE50: 23%
[2]; [6]
  DE04: 76%
  DE20: 59%
  DE30: 47%
  DE50: 36%
[2]; [7]
  DE04: 76%
  DE20: 65%
  DE30: 58%
  DE50: 50%
[2]; [8]
  DE04: 76%
  DE20: 68%
  DE30: 58%
  DE50: 52%
[3]; [9]
  morphology of mother plants: shortened internodes
  tiller production by mother plants: induced the mother plants to produce tillers
[3]; Transplanted treatment group (tillers transplanted to separate pots)
  average total seeds per plant vs control group: more than twice the number of seeds as the control group
[4]; Treated, Germplasm A diploid, 50 mL 2.5% PBZ soil drench at V8
  Ave. Ears Per Plant: 8
[4]; both germplasms (Germplasm A, LH244)
  response of average total kernels per plant and average ears per plant vs control: more than doubling
